In patent publication US7989494B2, “Polymorphs of N-hydroxy-3-[4-[[[2-(2-methyl-1H-indol-3-yl)ethyl]amino]methyl]phenyl]-2E-2-propenamide” (Novartis AG, priority 2006, dated 2011):
Structures can show the parent of a compound that is named as a salt.

Experiments:
Format in all cases: physicochemical
Aqueous solubility = conditions: water
Intrinsic dissolution = experiment: Intrinsic dissolution
[1] = Sorption-desorption isotherms, VTI humidity balance; conditions: for Sorption: 25° C., first sorption cycle; for Desorption: in % (unit assumed)
Procedure: Sorption-desorption isotherms were recorded by a VTI humidity balance. The salts of (N-hydroxy-3-[4-[[[2-(2-methyl-1H-indol-3-yl)ethyl]amino]methyl]phenyl]-2E-2-propenamide were first subjected to a drying step (25° C., r.h. below 2%, 2 hours) and then to a sorption-desorption-sorption sequence, with each RH % step retained for 3 hours. The free base was kept below 2% r.h. for several hours, and thus was completely dehydrated after the drying step. Only the data of the first sorption cycle are given in the table, since, in all cases, the two sorption cycles were very similar.

[2] = Hygroscopicity (descriptive)
[3] = Equilibration in solvents and aqueous media, solid form by XRPD
[4] = Solubility in organic solvents

Row | aqueous solubility (Aqueous solubility) | intrinsic dissolution (Intrinsic dissolution) | Sorption ([1]; Sample RH % 1.5) | Sorption ([1]; Sample RH % 5) | Desorption ([1]; Sample RH % 5) | Sorption ([1]; Sample RH % 25) | Desorption ([1]; Sample RH % 25) | Sorption ([1]; Sample RH % 50) | Desorption ([1]; Sample RH % 50) | Sorption ([1]; Sample RH % 75) | Desorption ([1]; Sample RH % 75) | Sorption ([1]; Sample RH % 85) | Desorption ([1]; Sample RH % 85) | Sorption ([1]; Sample RH % 95) | Desorption ([1]; Sample RH % 95) | hygroscopicity [2] | XRPD form after equilibration ([3]; 2-Propanol) | XRPD form after equilibration ([3]; Acetone) | XRPD form after equilibration ([3]; Ethanol) | XRPD form after equilibration ([3]; Ethyl Acetate) | Compound | further results
1 | 2600 µg/mL | good | 0% | 0.02% | −0.02 | 0.07% | 0.05 | 0.12% | 0.10 | 0.16% | 0.17 | 0.17% | 0.19 | 0.21% | 0.21 | nonhygroscopic | No change | No change | No change | No change | Cc1[nH]c2ccccc2c1CCNCc1ccc(/C=C/C(=O)NO)cc1 [Form A of the maleate salt, N-hydroxy-3-[4-[[[2-(2-methyl-1H-indol-3-yl)ethyl]amino]methyl]phenyl]-2E-2-propenamide] | XRPD form after equilibration ([3]; Methanol): No change; XRPD form after equilibration ([3]; pH = 6.8 buffer (phosphate)): No change; XRPD form after equilibration ([3]; water): No change; solubility in methanol and ethanol [4]: high solubility; solubility in other common / remaining organic solvents [4]: considerable solubility
2 | 12900 µg/mL | high | 0% | 0.03% | −0.03 | 0.1% | 0.07 | 0.16% | 0.16 | 0.23% | 0.25 | 0.31% | 0.33 | 0.82% | 0.82 | very slightly hygroscopic | No change | No change | No change | No change | Cc1[nH]c2ccccc2c1CCNCc1ccc(/C=C/C(=O)NO)cc1 [Form A of the mesylate salt, N-hydroxy-3-[4-[[[2-(2-methyl-1H-indol-3-yl)ethyl]amino]methyl]phenyl]-2E-2-propenamide] | moisture at 85% r.h. ([1]; 85% r.h.): less than 0.35%; XRPD form after equilibration ([3]; 0.1 N HCl): hydrochloride salt; XRPD form after equilibration ([3]; Water, listed as Mesylate): Changed to new; XRPD form after equilibration ([3]; pH = 6.8 buffer (phosphate)): free base; XRPD form after equilibration ([3]; water): converts to form B; solubility in methanol and ethanol [4]: high solubility; solubility in other common / remaining organic solvents [4]: appreciable solubility
